One assay deals with human cathepsin K (UniProt P43236, Y175D/V274L, species not given). The assay is described as follows: Cathepsin K Assay. In kind it is biochemical. Particulars: IP from dose response curve; Z-Leu-Arg-AMC substrate, pH 5.5; read-out: hrbCat K (IP (nM)).
Another assay concerns the target T1, human cathepsin F (Homo sapiens, UniProt Q9UBX1).
T1 sequence (Q9UBX1 271-484): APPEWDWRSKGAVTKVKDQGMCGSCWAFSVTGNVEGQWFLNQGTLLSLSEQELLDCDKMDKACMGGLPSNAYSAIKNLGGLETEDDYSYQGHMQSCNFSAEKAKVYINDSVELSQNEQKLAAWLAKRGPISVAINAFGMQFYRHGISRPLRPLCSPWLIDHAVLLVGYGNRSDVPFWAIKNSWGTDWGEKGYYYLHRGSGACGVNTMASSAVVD
Briefly: Cathepsin F Assay. In kind it is biochemical. Particulars: IP from dose response curve; Z-Phe-Arg-AMC substrate, pH 5.5; read-out: hCat F (IP (nM)). Put shortly:
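Human cathepsin F (10 nM) preincubated 15 min at room temperature with compounds in 50 mM MES pH 5.5, 2.5 mM EDTA, 2.5 mM DTT, 10% DMSO. Z-Phe-Arg-AMC (8 μM) added; AMC release read by fluorescence (Ex 360/Em 460 nm) over 20 min, inhibition fit to dose-response model.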

Data on eight compounds can be found in patent US9656990B2, “Cathepsin cysteine protease inhibitors” (Merck Sharp & Dohme Corp., priority 2014, dated 2017).

Take `C[C@@H](C#N)NC(=O)[C@@H]1C[C@@H](F)CC[C@H]1c1nn(-c2ncccc2F)cc1-c1ccc(N2CCS(=N)(=O)CC2)cc1` [Example 57, (1R,2R,5S)-N-((S)-1-cyanoethyl)-5-fluoro-2-(1-(3-fluoropyridin-2-yl)-4-(4-(1-imino-1-oxidothiomorpholino)phenyl)-1H-pyrazol-3-yl)cyclohexanecarboxamide]: the figures for the IC50 at human cathepsin K and on human cathepsin F were 8.3 nM and 7770 nM, respectively.

For `N#CC1(NC(=O)[C@@H]2C[C@@H](F)CC[C@H]2c2nn(-c3ccc(F)cn3)cc2-c2ccc(N3CCS(=N)(=O)CC3)cc2)CC1` [Example 59, (1R,2R,5S)-N-(1-cyanocyclopropyl)-5-fluoro-2-(1-(5-fluoropyridin-2-yl)-4-(4-(1-imino-1-oxidothiomorpholino)phenyl)-1H-pyrazol-3-yl)cyclohexanecarboxamide], the IC50 worked out at 1.29 nM on human cathepsin K and 2460 nM at human cathepsin F.

In the case of `C[C@@H](C#N)NC(=O)[C@@H]1C[C@@H](F)CC[C@H]1c1nn(-c2ccc(F)cn2)cc1-c1ccc(N2CCS(=N)(=O)CC2)cc1` [Example 60, (1R,2R,5S)-N-((S)-1-cyanoethyl)-5-fluoro-2-(1-(5-fluoropyridin-2-yl)-4-(4-(1-imino-1-oxidothiomorpholino)phenyl)-1H-pyrazol-3-yl)cyclohexanecarboxamide], the results for the IC50 at human cathepsin K and at human cathepsin F were 1.43 nM and 674 nM, respectively.

For `C[C@@H](C#N)NC(=O)[C@@H]1CC(F)(F)CC[C@H]1c1nn(-c2ccc(F)cc2)c(CO)c1-c1ccc(N2CCS(=O)(=O)CC2)cc1` [Example 61, (1R,2R)-N-((S)-1-cyanoethyl)-2-(4-(4-(1,1-dioxidothiomorpholino)phen-yl)-1-(4-fluorophenyl)-5-(hydroxymethyl)-1H-pyrazol-3-yl)-5,5-difluorocyclohexanecarbox-amide], the IC50 worked out at 1.61 nM on human cathepsin K and 121 nM at human cathepsin F.

As to `N#CC1(NC(=O)[C@@H]2CC(F)(F)CC[C@H]2c2nn(-c3ccc(F)cn3)c(CF)c2-c2ccc(N3CCS(=O)(=O)CC3)cc2)CC1` [Example 62, (1R,2R)-N-(1-cyanocyclopropyl)-2-(4-(4-(1,1-dioxidothiomorpholino)phen-yl)-5-(fluoromethyl)-1-(5-fluoropyridin-2-yl)-1H-pyrazol-3-yl)-5,5-difluorocyclohexanecarbox-amide], the IC50 on human cathepsin K was 1.33 nM; at human cathepsin F, 151 nM.

For `CC(C)[C@@H](C#N)NC(=O)[C@@H]1CC(F)(F)CC[C@H]1c1nn(-c2ccc(F)cc2)c(CO)c1-c1ccc(N2CCS(=O)(=O)CC2)cc1` [Example 63, (1R,2R)-N-((S)-1-cyano-2-methylpropyl)-2-(4-(4-(1,1-dioxidothiomorpholino)phen-yl)-1-(4-fluorophenyl)-5-(hydroxymethyl)-1H-pyrazol-3-yl)-5,5-difluorocyclohexanecarbox-amide], the figures for the IC50 on human cathepsin K and at human cathepsin F were 1.98 nM and 98 nM, respectively.

With `C[C@@H](C#N)NC(=O)[C@@H]1CCCC[C@H]1c1nn(-c2ccc(F)cc2)c(CO)c1-c1ccc(N2CCS(=O)(=O)CC2)cc1` [Example 64, (1R,2R)-N-((S)-1-cyanoethyl)-2-(4-(4-(1,1-dioxidothiomorpholino)phen-yl)-1-(4-fluorophenyl)-5-(hydroxymethyl)-1H-pyrazol-3-yl)cyclohexanecarboxamide], the IC50 at human cathepsin K came out at 4.61 nM; on human cathepsin F, 565 nM.

With `CC(C)[C@@H](C#N)NC(=O)[C@@H]1CCCC[C@H]1c1nn(-c2ccc(F)cc2)c(CO)c1-c1ccc(N2CCS(=O)(=O)CC2)cc1` [Example 65, (1R,2R)-N-((S)-1-cyano-2-methylpropyl)-2-(4-(4-(1,1-dioxidothiomorpholino)phen-yl)-1-(4-fluorophenyl)-5-(hydroxymethyl)-1H-pyrazol-3-yl)cyclohexanecarboxamide], the IC50 on human cathepsin K was 11 nM; at human cathepsin F, 868 nM.
